Measurements published in patent US20240246960A1 (adMare Therapeutics Society, priority 2021, published 2024).
Where two headings read alike, the source gives them in different places.

Columns and labels:
[1] = target: T1, pDNA-PK ser2056 induction in HCT116 spheroids (Homo sapiens, UniProt P78527); test: Multicellular tumour spheroid + radiation, pDNA-PK inhibition, HCT116; format: cell-based; conditions: 20 Gy
T1 construct: endogenous in cells; host or cells: HCT116 multicellular tumour spheroids
Outline: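 EC50 (μM) is concentration halving radiation-induced pDNA-PK ser2056, scored by fluorescent immunostaining of cryosections 2 h after 20 Gy. HCT116 tumour spheroids (~0.5 mm, stirred, 20% O2/5% CO2, 37 °C) exposed to serial dilutions from 10 or 5 μM to 3.5 nM starting 1 h before irradiation.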

[2] = target: T2, DNA-PK phosphorylation at Serine 2056 (Homo sapiens, UniProt P78527); test: Cellular Assay for Inhibition of DNA-PK Phosphorylation at Serine 2056 (FaDu cells, neocarzinostatin, sandwich ELISA); format: cell-based; conditions: Table 1
T2 construct: host or cells: FaDu
Outline: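 Readout was pSer2056 and total DNA-PK, measured by sandwich ELISA on protein-normalized lysates. Prior to lysis, compound was applied to FaDu cells for 1 h (0.3% DMSO), followed by 2 h of 1 μg/mL neocarzinostatin. IC50 values were fitted from log concentration versus % inhibition normalized to DMSO and NCS controls.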

[3] = Example 7, spheroid, cell line HCT115 [sic], 20% O2, read-out: EC50 (pDNA-PK inhibition, immunohistochemical endpoint)
[4] = Example 9 Study 2, 20% O2, read-out: Spheroid Cell line: HCT116 Immunohistochemical endpoint pDNA-PK inhibition EC50

Structure (SMILES) | EC50 [1, 3] [nM] | EC50 [1, 4] [nM] | IC50 [2] [nM] | EC50 ([1]; Example 8, spheroid, read-out: Cell line: HCT116 Immunohistochemical endpoint pDNA-PK inhibition EC50) [nM]
O=C(N[C@H]1CC[C@@H](Oc2nc(N3CCOCC3)cc3ncccc23)CC1)c1c[nH]cn1 [Compound 144, N-((1s,4s)-4-((7-morpholino-1,6-naphthyridin-5-yl)oxy)cyclohexyl)-1H-imidazole-4-carboxamide] | 1000 to 10000 | 1000 to 10000 | < 100 | –
CS(=O)(=O)Nc1cnc2cc(N3CCOCC3)nc(O[C@H]3CC[C@@H](n4ccnc4)CC3)c2c1 [Compound 161, N-(5-(((1s,4s)-4-(1H-imidazol-1-yl)cyclohexyl)oxy)-7-morpholino-1,6-naphthyridin-3-yl)methanesulfonamide] | 1000 to 10000 | 1000 to 10000 | 100 to 1000 | 1000 to 10000
COc1cnc(N[C@H]2CC[C@@H](Oc3nc(N4CCOCC4)cc4ncc(NS(C)(=O)=O)cc34)CC2)nc1 [Compound 203, N-(5-(((1s,4s)-4-((5-methoxypyrimidin-2-yl)amino)cyclohexyl)oxy)-7-morpholino-1,6-naphthyridin-3-yl)methanesulfonamide] | 10 to 500 | 10 to 500 | < 100 | –

Results, then the molecule that gave them:

EC50 [1, 3] [nM] | EC50 [1, 4] [nM] | IC50 [2] [nM] | EC50 ([1]; Example 8, spheroid, read-out: Cell line: HCT116 Immunohistochemical endpoint pDNA-PK inhibition EC50) [nM] | Structure (SMILES)
10 to 500 | 10 to 500 | < 100 | – | CS(=O)(=O)Nc1cnc2cc(N3CCOCC3)nc(O[C@H]3CC[C@@H](Nc4ncccn4)CC3)c2c1 [Compound 185, N-(7-morpholino-5-(((1s,4s)-4-(pyrimidin-2-ylamino)cyclohexyl)oxy)-1,6-naphthyridin-3-yl)methanesulfonamide]
1000 to 10000 | 1000 to 10000 | < 100 | – | CS(=O)(=O)Nc1cnc2cc(N3CCOCC3)nc(O[C@H]3CC[C@@H](NC(=O)c4ncco4)CC3)c2c1 [Compound 205, N-((1s,4s)-4-((3-(methylsulfonamido)-7-morpholino-1,6-naphthyridin-5-yl)oxy)cyclohexyl)oxazole-2-carboxamide]
